We go through six compounds from PMC11148045, “Structural basis for recognition of 26RFa by the pyroglutamylated RFamide peptide receptor” (Cell Discovery, 2024).

One assay concerns NPY1R and NPY4R. The settings on record: cited from earlier work; for role of hydrogen bond of Tyr36 with Q^5.46 in activity: NPY1R and NPY4R. The text has this: Specifically, Arg25 and Arg35 in 26RFa and NPY/PP are exposed to a conserved polar environment that includes residues E^45.52, T^5.39, and D/E^6.59 in QRFPR and NPYRs. However, subtle differences exist in the special binding interactions between these arginines and conserved polar residues (Fig. 4d–f). Side chains of Arg35 in NPY/PP form a conserved salt bridge with D^6.59 and a hydrogen bond with T^5.39 (NPY1R and NPY4R) or a salt bridge with E^45.52 (NPY2R) (Fig. 4e, f). In 26RFa, Arg25 retains its salt bridge with E203^45.52 but fails to build a salt bridge with E297^6.59 (Fig. 3b). It is p ... || Phe26 in 26RFa and Tyr36 in NPY/PP show distinct binding characteristics for QRFRP and NPYRs, respectively. […] (Fig. 4e). However, in NPY2R, this hydrogen bond is absent due to the substitution of glutamine with leucine at position 5.46, which lacks a hydrogen bond donor (Fig. 4c, f). Similarly, QRFPR also has a leucine at position 5.46, which cannot form a corresponding hydrogen bond with Phe26 in 26RFa. Furthermore, in contrast to the notable impact of Q^5.46 on the NP ...

The next assay has as its target T1, PrRPR (WT) (Homo sapiens, UniProt P49683).
T1 construct: expressed in transfected cells; host or cells: HEK293, transient transfection by electroporation
Briefly: PrRP-20-induced calcium mobilization, wild-type receptor. Conditions: HEK293, Fluo-4, mean ± S.E.M., n ≥ 3. In kind it is cell-based. As to the method:
(§1) The gene encoding the WT QRFPR, PrPRR, KISS1R, NPFF1R, or NPFF2R was subcloned into the pcDNA3.0 vector with the addition of an N-terminal HA tag. All of the mutations used for functional studies were generated by QuickChange PCR and verified by DNA sequencing.
(§2) HEK293 cells were obtained from ATCC (Manassas, VA, USA) and cultured in DMEM supplemented with 10% (v/v) FBS, 100 mg/L penicillin, and 100 mg/L streptomycin in 5% CO2 at 37 °C. For transient transfection, ~2.5 × 10^6 cells were mixed with 2 µg plasmids in 200 µL transfection buffer, and electroporation was carried out with a Scientz-2C electroporation apparatus (Scientz Biotech, Ningbo, China). The experiments were carried out 24 h after transfection.
For QRFPR, PrRPR, and KISS1R, HEK293 cells transfected with WT receptor or its mutants were seeded at a density of 4 × 10^4 per well into 96-well culture plates and incubated for 24 h at 37 °C in 5% CO2. […] After washing, cells were added with 50 μL HBSS and incubated at room temperature for 10 min, then 25 μL agonist buffer was dispensed into the well using a FlexStation III microplate reader (Molecular Devices), and intracellular calcium change was recorded at an excitation wavelength of 485 nm and an emission wavelength of 525 nm. EC50 and Emax values for each curve were calculated by Prism 8.0 software (GraphPad Software).
(A change in cytosolic calcium serves as a functional read-out for many receptors and channels.)

The target in the next assay is T2, PrRPR mutants (Homo sapiens, UniProt P49683, D302A/E213A/H321A/Q141A).
T2 construct: expressed in transfected cells; host or cells: HEK293, transient transfection by electroporation
T2 sequence (P49683 1-370 Q141A/E213A/D302A/H321A): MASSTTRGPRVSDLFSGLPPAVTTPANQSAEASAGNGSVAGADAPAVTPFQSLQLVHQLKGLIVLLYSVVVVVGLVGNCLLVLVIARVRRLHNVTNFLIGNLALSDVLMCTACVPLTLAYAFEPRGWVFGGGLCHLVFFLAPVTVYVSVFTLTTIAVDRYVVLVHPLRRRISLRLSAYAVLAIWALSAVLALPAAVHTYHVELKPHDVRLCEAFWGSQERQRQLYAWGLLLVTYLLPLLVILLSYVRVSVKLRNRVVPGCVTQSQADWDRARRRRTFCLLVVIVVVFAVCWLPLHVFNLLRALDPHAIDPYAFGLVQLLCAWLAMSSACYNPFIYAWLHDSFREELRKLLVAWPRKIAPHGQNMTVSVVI
Put plainly: PrRP-20-induced calcium mobilization, receptor mutants. It is filed as cell-based. Conditions: HEK293, Fluo-4, mean ± S.E.M., n ≥ 3. How it is done: as §1, §2
For QRFPR, PrRPR, and KISS1R, HEK293 cells transfected with WT receptor or its mutants were seeded at a density of 4 × 10^4 per well into 96-well culture plates and incubated for 24 h at 37 °C in 5% CO2. For NPFF1R and NPFF2R, plasmids were transfected into HEK293 cells stably expressing Gα16. On the next day, cells were incubated with 2 μmol/L Fluo-4 AM in HBSS supplemented with 5.6 mmol/L D-glucose and 250 μmol/L sulfinpyrazone at 37 °C for 45 min. After washing, cells were added with 50 μL HBSS and incubated at room temperature for 10 min, then 25 μL agonist buffer was dispensed into the well using a FlexStation III microplate reader (Molecular Devices), and intracellular calcium change was recorded at an excitation wavelength of 485 nm and an emission wavelength of 525 nm. EC50 and Emax values for each curve were calculated by Prism 8.0 software (GraphPad Software).

The target of another assay is T3, KISS1R (WT) (Homo sapiens, UniProt Q969F8).
T3 construct: expressed in transfected cells; host or cells: HEK293, transient transfection by electroporation
T3 sequence (Q969F8 whole entry, species assumed): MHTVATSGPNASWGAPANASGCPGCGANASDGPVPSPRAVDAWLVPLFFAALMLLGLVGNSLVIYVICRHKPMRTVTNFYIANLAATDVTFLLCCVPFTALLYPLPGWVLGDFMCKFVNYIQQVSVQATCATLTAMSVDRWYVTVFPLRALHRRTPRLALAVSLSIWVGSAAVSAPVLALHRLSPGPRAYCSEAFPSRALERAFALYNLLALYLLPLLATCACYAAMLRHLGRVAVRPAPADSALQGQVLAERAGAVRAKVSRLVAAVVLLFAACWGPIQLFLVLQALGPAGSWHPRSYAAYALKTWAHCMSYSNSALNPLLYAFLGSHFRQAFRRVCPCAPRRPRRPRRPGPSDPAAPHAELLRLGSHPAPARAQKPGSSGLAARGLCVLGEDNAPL
Put plainly: KP-10-induced calcium mobilization, wild-type receptor. In kind it is cell-based. Conditions: HEK293, Fluo-4, mean ± S.E.M., n ≥ 3.

In another assay the target is T4, KISS1R mutants (Homo sapiens, UniProt Q969F8, E193A/H309A/Q122A).
T4 construct: expressed in transfected cells; host or cells: HEK293, transient transfection by electroporation
T4 sequence (Q969F8 whole entry Q122A/E193A/H309A): as the sequence (Q969F8 whole entry, species assumed) above, with Q122A, E193A, H309A counted along it
Briefly: KP-10-induced calcium mobilization, receptor mutants. The settings on record: HEK293, Fluo-4, mean ± S.E.M., n ≥ 3. In kind it is cell-based.

Another assay deals with QRFPR. The settings on record: cited from earlier work. From the text: cDNA encoding the precursor or orthologue of 26RFa is detected in vertebrates, from fish[16], and phasianidae, to mammals. In humans, 26RFa and its N-terminal extended mature peptide 43RFa are extracted from the human brain, and mRNA of QRFPR is detected in the hypothalamus, vestibular nuclei, and other areas of the central nervous system. QRFPR is also detected in some peripheral organs[18],[19]. Both 26RFa and 43RFa are endogenous ligands for QRFPR (GPR103)[4],[18]. The amino acid sequences of 26RFa are conserved among mammalian species, with 26RFa from rats being slightly mor ... || Considerable efforts have been dedicated to elucidating the recognition mechanism of 26RFa by QRFPR. […] This segment served as a molecular scaffold for the development of low molecular weight peptides with enhanced potency and increased stability[21],[28]. […] Globally, the 26RFa segment (Gly20–Phe24) leans to TM2, but is far from TMs 5–7, leaving a large portion of unoccupied space lined by TMs 5–7 (Fig. 3a). Two glycines (Gly20, Gly21) are compactly packed into a crevice composed of residues on ECL1, ECL2, and the N-terminus (Fig. 3a). They moderately impact 26RFa activity, as substit ... || (+ 2 further places)

No end group written: not given here.

T1 sequence (P49683 whole entry, species assumed): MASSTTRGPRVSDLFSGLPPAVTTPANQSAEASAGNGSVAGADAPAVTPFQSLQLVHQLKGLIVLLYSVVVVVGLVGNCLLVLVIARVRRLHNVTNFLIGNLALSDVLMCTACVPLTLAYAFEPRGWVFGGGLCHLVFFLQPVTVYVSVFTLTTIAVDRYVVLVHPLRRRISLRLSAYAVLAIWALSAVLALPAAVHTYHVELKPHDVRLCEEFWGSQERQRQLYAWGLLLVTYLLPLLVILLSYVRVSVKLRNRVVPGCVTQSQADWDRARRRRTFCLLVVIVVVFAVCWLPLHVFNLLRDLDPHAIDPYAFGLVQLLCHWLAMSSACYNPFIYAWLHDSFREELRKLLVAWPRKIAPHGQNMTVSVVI

On to pancreatic polypeptide [PP], for which, in the assay on NPY1R and NPY4R, the “role of hydrogen bond of Tyr36 with Q^5.46 in activity” value is reported as “crucial for NPY/PP activity”; the “role of amide-surrounding residues (C^2.57, T^2.61, Q^3.32, Q/H^7.39) in activity” value was “critical for 26RFa and NPY/PP activities”.

As for “TPDINPAWYASRGIRPVGRF-NH2 [PrRP-20, prolactin-releasing peptide]”, the EC50 on PrRPR (WT) was 1.1 nM; at PrRPR mutants (PrRPR D302^6.59A), 11.2 nM; on PrRPR mutants (PrRPR E213^45.52A) it was 115 nM; on PrRPR mutants (PrRPR H321^7.39A) it was 14.8 nM; on PrRPR mutants (PrRPR Q141^3.32A), 1.05 nM. In addition, the Emax amounted to 100 ± 3.9% at PrRPR (WT); 124 ± 8.9% at PrRPR mutants (HEK293, PrRPR D302^6.59A); 27.7 ± 0.37% on PrRPR mutants (HEK293, PrRPR E213^45.52A); 19.7 ± 0.75% on PrRPR mutants (HEK293, PrRPR H321^7.39A); 49.2 ± 1.2% on PrRPR mutants (HEK293, PrRPR Q141^3.32A).

Turning to `CC(C)C[C@H](NC(=O)CNC(=O)[C@H](Cc1ccccc1)NC(=O)[C@H](CO)NC(=O)[C@H](CC(N)=O)NC(=O)[C@H](Cc1c[nH]c2ccccc12)NC(=O)[C@H](CC(N)=O)NC(=O)[C@@H](N)Cc1ccc(O)cc1)C(=O)N[C@@H](CCCNC(=N)N)C(=O)N[C@@H](Cc1ccccc1)C(N)=O` [KP-10], the 50% effective concentration (EC50) on KISS1R (WT) is 4.27 nM; on KISS1R mutants (KISS1R E193^45.52A), 10 nM; at KISS1R mutants (KISS1R H309^7.39A), 17.4 nM; at KISS1R mutants (KISS1R Q122^3.32A), 5.13 nM. For the same compound, the maximum response (Emax) at KISS1R (WT) is 100 ± 1.2%; at KISS1R mutants (HEK293, KISS1R E193^45.52A), 126 ± 6.2%; on KISS1R mutants (HEK293, KISS1R H309^7.39A), 89.6 ± 1%; at KISS1R mutants (HEK293, KISS1R Q122^3.32A) it was 12.8 ± 0.76%.

Turning to “26RFa from rats: 26RFa from rats; rat 26RFa (GenScript) used for the complex”, in the assay with QRFPR (calcium mobilization), the “potency, rat vs human 26RFa” value was “slightly more potent than that from humans”.

For the compound “26RFa (1–18): N-terminal segment of native 26RFa lacking the C-terminal octapeptide (QDEGSEATGFLPAAGEKT; QRF-amide; UniProt P83859 91-108, looked up, fragment)”, in the assay with QRFPR (26RFa (1–18), lacks the C-terminal octapeptide), the “ability to activate the receptor” value is “loses its ability to activate the receptor”.

In the case of Neuropeptide Y [NPY], in the assay with NPY1R and NPY4R, the “role of hydrogen bond of Tyr36 with Q^5.46 in activity” value was “crucial for NPY/PP activity”; the “role of amide-surrounding residues (C^2.57, T^2.61, Q^3.32, Q/H^7.39) in activity” value is “critical for 26RFa and NPY/PP activities”.

The term EC50 denotes the concentration needed to bring the measured effect to its halfway point. The Emax is the size of the effect at its maximum, as opposed to the concentration needed.
